Data published in ChEMBL document CHEMBL1140603, “Simple criterion for selection of flavonoid compounds with anti-HIV activity” (Bioorg Med Chem Lett, 2007).

Test system: Human immunodeficiency virus 1
Assay: Inhibition of HIV1 replication
Type: functional, organism-based

SMILES | EC50
COc1ccc(-c2cc(=O)c3c(OC)c(OC)ccc3o2)cc1OC | ≥ 100 µM
O=c1cc(-c2ccc(O)c(O)c2)oc2ccccc12 | ≥ 100 µM
O=c1cc(-c2ccc(O)cc2)oc2cc(O)cc(O)c12 [APIGENIN] | ≥ 100 µM
O=c1c(O)c(-c2ccc(O)c(O)c2)oc2cc(O)ccc12 [FISETIN] | < 100 µM
COc1c(O)cc2oc(-c3ccc(O)c(O)c3)cc(=O)c2c1O [EUPAFOLIN] | < 100 µM
O=c1c(O)c(-c2cc(O)c(O)c(O)c2)oc2cc(O)ccc12 [ROBINETIN] | < 100 µM
O=c1cc(-c2ccccc2)oc2cc(O)ccc12 [7-HYDROXYFLAVONE] | ≥ 100 µM
COc1cc(O)c2c(=O)cc(-c3ccc(O)cc3)oc2c1 [GENKWANIN] | ≥ 100 µM
COc1ccc(-c2cc(=O)c3c(OC)c(OC)c(OC)c(OC)c3o2)cc1 [TANGERETIN] | ≥ 100 µM
O=c1c(O)c(-c2ccc(O)c(O)c2)oc2cc(O)c(O)c(O)c12 [QUERCETAGETIN] | < 100 µM
O=c1c(O)c(-c2cc(O)c(O)c(O)c2)oc2cc(O)cc(O)c12 [MYRICETIN] | < 100 µM
O=c1c(O)c(-c2ccc(O)c(O)c2)oc2cc(O)cc(O)c12 [QUERCETIN] | < 100 µM
COc1cc(O)c2c(=O)c(O)c(-c3ccc(O)c(O)c3)oc2c1 [RHAMNETIN] | < 100 µM
COc1ccc(-c2cc(=O)c3c(OC)c(OC)c(OC)cc3o2)cc1 | ≥ 100 µM
O=c1c(O)c(-c2ccc(O)cc2O)oc2cc(O)cc(O)c12 [MORIN] | < 100 µM
COc1ccc(-c2oc3cc(O)ccc3c(=O)c2OC)cc1 | ≥ 100 µM
O=c1c(O)c(-c2ccc(O)cc2)oc2cc(O)cc(O)c12 [KAEMPFEROL] | < 100 µM
COc1ccc(-c2cc(=O)c3c(O)cc(O)cc3o2)cc1 [ACACETIN] | ≥ 100 µM
COc1ccc(-c2cc(=O)c3c(OC)c(OC)c(OC)cc3o2)cc1OC [SINENSETIN] | ≥ 100 µM
O=c1cc(-c2ccccc2)oc2cc(O)cc(O)c12 [CHRYSIN] | ≥ 100 µM
